Where two headings read alike, the source gives them in different places. Marks after values point to notes of the source that are not given here.
Columns and labels:
[1] = tested on: penicillin G-resistant S. pneumoniae; assay: Checkerboard method MIC, penicillin G-resistant S. pneumoniae (Test Example 1); assay type: cell-based; conditions: for MIC: Streptococcus pneumoniae, antibiotic used alone, read-out: MIC, single use; for MIC, combined use: CFIX and AMPC used combinedly
Method: (§1) Checkerboard method (cf. Hideyo Yamaguchi: “Konnichi no Koseibusshitsu (Antibiotics of today)”, page 411, published by Nanzando)
(§2) The MIC of each antibiotic used singly and the MIC of each combination of antibiotics were determined by the standard method established by the Japan Society of Chemotherapy, using Mueller-Hinton agar medium (MHA, product of Difco) for M. catarrhalis and K. pneumoniae, 5% equine blood agar (MHA+5% equine blood) for S. pneumoniae, and MHA+5% equine blood (chocolate agar) for H. influenzae. A 100-fold dilution of an overnight culture of each bacterial strain was stamp-inoculated and, after 18 hours of incubation at 37° C. (in the case of S. pneumoniae and H. influenzae, in an atmosphere containing 5% carbon dioxide), the MIC was measured (in μg/ml)
(§3) The MIC's of two individual antibiotics and the MIC's of the two respective antibiotics used combinedly were determined by the checkerboard method and the fractional inhibitory concentration index (hereinafter, “FIC index”) was determined according to the equation shown below. [formula]
(§4) ao: MIC of antibiotic A used alone; b: MIC of antibiotic B used alone; a, b: MIC's of antibiotics A and B, respectively, when they are used combinedly.

K. pneumoniae = assay: Checkerboard method MIC, K. pneumoniae (Test Example 1); assay type: cell-based; conditions: for MIC: Klebsiella pneumoniae, antibiotic used alone, read-out: MIC, single use; for MIC, combined use: CFIX and AMPC used combinedly
Method: as §1, §2, §3, §4

S. pneumoniae FP1906 = assay: Mixed respiratory infection in mice, viable S. pneumoniae in the lung (Test Example 4); assay type: in vivo; conditions: oral, 2 days after infection
Method: (§5) ICR strain male mice (4 weeks old, 5 animals per group) given cyclophosphamide (200 mg/kg, ip) 4 days prior to infection were nasally infected with S. pneumoniae FP1906 (2.0×10^7 cfu/mouse) and K. pneumoniae 15004 (5.5×10^3 cfu/mouse). Each drug was orally administered three times (3, 18 and 26 hours after infection) and, at 2 days after infection, viable cells in the lung were counted.

K. pneumoniae 15004 = assay: Mixed respiratory infection in mice, viable K. pneumoniae in the lung (Test Example 4); assay type: in vivo; conditions: oral, 2 days after infection
Method: as §5

Row | SMILES | MIC ([1]; strain FP1884) | MIC ([1]; strain FP1885) | MIC ([1]; strain FP1891) | MIC ([1]; strain FP1906) | MIC, combined use ([1]; strain FP1884) | MIC, combined use ([1]; strain FP1885) | MIC, combined use ([1]; strain FP1891) | MIC, combined use ([1]; strain FP1906) | MIC (K. pneumoniae; strain 15004) | MIC (K. pneumoniae; strain 15021) | MIC, combined use (K. pneumoniae; strain 15004) | Viable cells in the lung (logarithm), S. pneumoniae (S. pneumoniae FP1906; 10 mg/kg three times) | Viable cells in the lung (logarithm), S. pneumoniae (S. pneumoniae FP1906; 50 mg/kg three times) | Viable cells in the lung (logarithm), K. pneumoniae (K. pneumoniae 15004; 10 mg/kg three times) | Viable cells in the lung (logarithm), K. pneumoniae (K. pneumoniae 15004; 50 mg/kg three times) | MIC, combined use (K. pneumoniae; strain 15021)
1 | CC1(C)S[C@@H]2[C@H](NC(=O)[C@H](N)c3ccc(O)cc3)C(=O)N2[C@H]1C(=O)O [AMPC, amoxicillin] | 0.2 µg/mL | 0.78 µg/mL | 0.39 µg/mL | 0.76 µg/mL | 0.05 µg/mL | 0.39 µg/mL | 0.025 µg/mL | 0.2 µg/mL | 100 µg/mL | 25 µg/mL | 50 µg/mL | 7.04 logarithm | 5.29^* logarithm | 9.32^*# logarithm | 9.38^*# logarithm | 
2 | C=CC1=C(C(=O)O)N2C(=O)[C@@H](NC(=O)/C(=N\OCC(=O)O)c3csc(N)n3)[C@H]2SC1 [CFIX, Cefixime] | 12.5 µg/mL | 6.25 µg/mL | 3.13 µg/mL | 12.5 µg/mL | 0.78 µg/mL | 0.1 µg/mL | 0.78 µg/mL | 1.56 µg/mL | 0.05 µg/mL | 0.025 µg/mL | ≦0.00313 μg/ml | 8.46^*# logarithm | 8.26^*# logarithm | 4.14 logarithm | 2.34 logarithm | 0.0125 µg/mL

From patent US6369050B1, “Antibacterial agents” (Fujisawa Pharmaceutical Co., Ltd., priority 1998, dated 2002)
